The values below come from US10034861B2 (priority 2016, dated 2018).

Where two headings read alike, the source gives them in different places.

Common to all, as to assay type: biochemical
Assay [1] has as its target PDE1A (Homo sapiens (Human), UniProt P54750). Put plainly: biochemical. The text has this: (§1) Table 1 lists the IC50 value for inhibition of PDE1 by the compounds of the invention. […] PDE1 assays are described in the Experimental Section.
Assay [2] addresses PDE1C (Homo sapiens (Human), UniProt Q14123). The assay can be described thus: biochemical.
Excerpt: as §1

Assay [3] addresses PDE1B (Homo sapiens (Human), UniProt Q01064). The assay can be described thus: PDE1 inhibition assay (PDE1B). Conditions: 15 nM tritium labelled cAMP, 1 hr at room temperature, SPA beads.
Excerpt: as §1

Setting [4] is: 15 nM tritium labelled cAMP, 1 hr at room temperature, SPA beads.

In general, IC50 refers to the concentration needed to halve the response being measured.

PDE1C, sequence (Q14123 whole entry): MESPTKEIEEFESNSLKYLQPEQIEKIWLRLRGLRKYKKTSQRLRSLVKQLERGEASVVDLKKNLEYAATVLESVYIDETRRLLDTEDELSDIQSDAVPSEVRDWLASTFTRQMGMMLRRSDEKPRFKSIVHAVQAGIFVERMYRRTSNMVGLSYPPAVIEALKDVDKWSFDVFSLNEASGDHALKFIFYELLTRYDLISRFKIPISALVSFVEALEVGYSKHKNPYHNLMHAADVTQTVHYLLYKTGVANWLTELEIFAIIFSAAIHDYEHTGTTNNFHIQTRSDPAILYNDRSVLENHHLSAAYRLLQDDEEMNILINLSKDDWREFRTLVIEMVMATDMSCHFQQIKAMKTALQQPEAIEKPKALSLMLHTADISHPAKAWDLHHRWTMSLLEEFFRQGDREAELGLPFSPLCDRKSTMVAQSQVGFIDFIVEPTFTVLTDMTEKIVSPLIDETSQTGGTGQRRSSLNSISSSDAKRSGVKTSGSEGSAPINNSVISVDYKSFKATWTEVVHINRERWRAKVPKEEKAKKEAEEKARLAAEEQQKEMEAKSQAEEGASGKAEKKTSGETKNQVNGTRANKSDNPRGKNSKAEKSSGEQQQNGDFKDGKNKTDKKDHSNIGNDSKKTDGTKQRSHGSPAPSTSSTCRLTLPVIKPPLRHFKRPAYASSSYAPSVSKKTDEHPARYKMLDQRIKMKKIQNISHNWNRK
PDE1B, sequence (Q01064 whole entry): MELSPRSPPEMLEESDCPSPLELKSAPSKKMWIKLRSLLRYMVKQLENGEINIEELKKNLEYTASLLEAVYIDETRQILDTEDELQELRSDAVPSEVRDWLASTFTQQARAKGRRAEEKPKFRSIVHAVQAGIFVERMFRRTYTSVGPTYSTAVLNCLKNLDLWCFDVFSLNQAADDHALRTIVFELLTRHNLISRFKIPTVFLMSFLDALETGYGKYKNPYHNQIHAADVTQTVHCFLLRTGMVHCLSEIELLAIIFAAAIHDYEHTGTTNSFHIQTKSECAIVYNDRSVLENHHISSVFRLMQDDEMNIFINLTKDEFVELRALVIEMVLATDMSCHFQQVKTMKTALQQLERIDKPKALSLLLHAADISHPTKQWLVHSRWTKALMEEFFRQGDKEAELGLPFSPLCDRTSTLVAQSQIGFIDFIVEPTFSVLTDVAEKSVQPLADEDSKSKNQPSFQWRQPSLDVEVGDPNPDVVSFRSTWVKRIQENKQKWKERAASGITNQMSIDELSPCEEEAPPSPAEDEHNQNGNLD
PDE1A, sequence (P54750 whole entry): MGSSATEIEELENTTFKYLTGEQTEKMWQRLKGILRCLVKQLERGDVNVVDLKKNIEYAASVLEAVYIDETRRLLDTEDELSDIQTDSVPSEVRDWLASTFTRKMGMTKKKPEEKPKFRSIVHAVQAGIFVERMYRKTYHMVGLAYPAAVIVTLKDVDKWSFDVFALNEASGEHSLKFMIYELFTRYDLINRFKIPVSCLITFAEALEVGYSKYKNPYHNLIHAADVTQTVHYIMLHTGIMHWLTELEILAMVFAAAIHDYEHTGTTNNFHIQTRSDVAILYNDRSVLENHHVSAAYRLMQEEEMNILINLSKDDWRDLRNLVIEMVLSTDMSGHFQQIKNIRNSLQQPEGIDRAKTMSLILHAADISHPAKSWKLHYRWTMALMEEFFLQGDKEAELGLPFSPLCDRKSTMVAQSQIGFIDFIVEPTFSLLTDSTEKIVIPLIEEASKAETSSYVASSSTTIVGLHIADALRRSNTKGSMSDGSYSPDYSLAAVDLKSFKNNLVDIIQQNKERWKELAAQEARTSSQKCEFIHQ

As for `COc1ncccc1CNc1cc(-c2ccc[nH]c2=O)nc2c(C)nn(C(C)C)c12` [Example 171, 3-[1-isopropyl-7-[(2-methoxy-3-pyridyl)methylamino]-3-methyl-pyrazolo[4,3-b]pyridin-5-yl]-1H-pyridin-2-one], the IC50 in assay [1] (setting [4]) came to 290 nM; in assay [2] (setting [4]), 420 nM; in assay [3] (read-out: PDE1B, IC50) it was 47 nM.

As for `COc1ncccc1-c1cc(NCc2cnc(C)s2)c2c(n1)c(C)nn2C(C)C` [Example 173, 1-isopropyl-5-(2-methoxy-3-pyridyl)-3-methyl-N-[(2-methylthiazol-5-yl)methyl]pyrazolo[4,3-b]pyridin-7-amine], the IC50 in assay [1] (setting [4]) is 49 nM; in assay [2] (setting [4]), 26 nM; in assay [3] (read-out: PDE1B, IC50), 6.3 nM.

For `COc1ncccc1CNc1cc(-c2cccnc2OC2CC2)nc2c(C)nn(C(C)C)c12` [Example 174, 5-(2-cyclopropoxypyridin-3-yl)-1-isopropyl-N-((2-methoxypyridin-3-yl)methyl)-3-methyl-1H-pyrazolo[4,3-b]pyridin-7-amine], the IC50 was found to be 18 nM in assay [1] (setting [4]); 52 nM in assay [2] (setting [4]); 1.5 nM in assay [3] (read-out: PDE1B, IC50).

As for `COc1ncccc1CNc1cc(-c2ccnn2C)nc2c(C)nn(C(C)C)c12` [Example 175, 1-isopropyl-N-((2-methoxypyridin-3-yl)methyl)-3-methyl-5-(1-methyl-1H-pyrazol-5-yl)-1H-pyrazolo[4,3-b]pyridin-7-amine], the IC50 amounted to 83 nM in assay [1] (setting [4]); 130 nM in assay [2] (setting [4]); 17 nM in assay [3] (read-out: PDE1B, IC50).

Regarding `CCOc1ncccc1-c1cc(NCc2ncc(OC)cn2)c2c(n1)c(C)nn2C(C)C` [Example 176, 5-(2-ethoxy-3-pyridyl)-1-isopropyl-N-[(5-methoxypyrimidin-2-yl)methyl]-3-methyl-pyrazolo[4,3-b]pyridin-7-amine], the IC50 in assay [1] (setting [4]) came out at 81 nM; in assay [2] (setting [4]), 93 nM; in assay [3] (read-out: PDE1B, IC50), 12 nM.

As to `Cc1nn(C(C)C)c2c(NCc3cnn(C)c3)cc(-c3ccc[nH]c3=O)nc12` [Example 177, 3-[1-isopropyl-3-methyl-7-[(1-methylpyrazol-4-yl)methylamino]pyrazolo[4,3-b]pyridin-5-yl]-1H-pyridin-2-one], the IC50 in assay [1] (setting [4]) is 130 nM; in assay [2] (setting [4]) it was 180 nM; in assay [3] (read-out: PDE1B, IC50), 20 nM.

In the case of `CCOc1ncccc1-c1cc(NCc2cccnc2C(F)F)c2c(n1)c(C)nn2C(C)C` [Example 178, N-[[2-(difluoromethyl)-3-pyridyl]methyl]-5-(2-ethoxy-3-pyridyl)-1-isopropyl-3-methyl-pyrazolo[4,3-b]pyridin-7-amine], the IC50 in assay [1] (setting [4]) amounted to 31 nM; in assay [2] (setting [4]), 63 nM; in assay [3] (read-out: PDE1B, IC50) it was 3.2 nM.

Take `CCOc1ncccc1-c1cc(NCc2cc(OC)ncn2)c2c(n1)c(C)nn2C(C)C` [Example 179, 5-(2-ethoxy-3-pyridyl)-1-isopropyl-N-[(6-methoxypyrimidin-4-yl)methyl]-3-methyl-pyrazolo[4,3-b]pyridin-7-amine]: the IC50 was 2.8 nM in assay [1] (setting [4]); 7 nM in assay [2] (setting [4]); 0.51 nM in assay [3] (read-out: PDE1B, IC50).

In the case of `[2H]C([2H])(C)Oc1ncccc1-c1cc(NCc2cccnc2OC)c2c(n1)c(C)nn2C(C)C` [Example 180, 5-(2-(ethoxy-1,1-d2)pyridin-3-yl)-1-isopropyl-N-((2-methoxypyridin-3-yl)methyl)-3-methyl-1H-pyrazolo[4,3-b]pyridin-7-amine], the IC50 in assay [1] stood at 27 nM; in assay [2], 78 nM; in assay [3] (PDE1B, IC50 (nM)), 0.77 nM.

As to `[2H]C([2H])([2H])C([2H])([2H])Oc1ncccc1-c1cc(NCc2cccnc2OC)c2c(n1)c(C)nn2C(C)C` [Example 181, 5-(2-(ethoxy-d5)pyridin-3-yl)-1-isopropyl-N-((2-methoxypyridin-3-yl)methyl)-3-methyl-1H-pyrazolo[4,3-b]pyridin-7-amine], the concentration for half-maximal inhibition (IC50) was determined as 31 nM in assay [1]; 84 nM in assay [2]; 1.6 nM in assay [3] (PDE1B, IC50 (nM)).
